Data reported in PMC12597212, “Biaryl Phosphate‐Based Inhibitors of the Transcription Factor STAT4” (Chemmedchem, 2025).
Read-outs that look alike come from different tables or passages of the source.

How the values were obtained:
[1] = target: T1, STAT4 SH2 domain (Homo sapiens, UniProt Q14765); assay: Competitive fluorescence polarization (FP) assay, STAT4; type: binding; details: for IC50: 28 nM STAT4, 10 nM tracer peptide; for Ki: Ki calculated from IC50, mean ± SD, n = 3
T1 sequence (Q14765 1-748): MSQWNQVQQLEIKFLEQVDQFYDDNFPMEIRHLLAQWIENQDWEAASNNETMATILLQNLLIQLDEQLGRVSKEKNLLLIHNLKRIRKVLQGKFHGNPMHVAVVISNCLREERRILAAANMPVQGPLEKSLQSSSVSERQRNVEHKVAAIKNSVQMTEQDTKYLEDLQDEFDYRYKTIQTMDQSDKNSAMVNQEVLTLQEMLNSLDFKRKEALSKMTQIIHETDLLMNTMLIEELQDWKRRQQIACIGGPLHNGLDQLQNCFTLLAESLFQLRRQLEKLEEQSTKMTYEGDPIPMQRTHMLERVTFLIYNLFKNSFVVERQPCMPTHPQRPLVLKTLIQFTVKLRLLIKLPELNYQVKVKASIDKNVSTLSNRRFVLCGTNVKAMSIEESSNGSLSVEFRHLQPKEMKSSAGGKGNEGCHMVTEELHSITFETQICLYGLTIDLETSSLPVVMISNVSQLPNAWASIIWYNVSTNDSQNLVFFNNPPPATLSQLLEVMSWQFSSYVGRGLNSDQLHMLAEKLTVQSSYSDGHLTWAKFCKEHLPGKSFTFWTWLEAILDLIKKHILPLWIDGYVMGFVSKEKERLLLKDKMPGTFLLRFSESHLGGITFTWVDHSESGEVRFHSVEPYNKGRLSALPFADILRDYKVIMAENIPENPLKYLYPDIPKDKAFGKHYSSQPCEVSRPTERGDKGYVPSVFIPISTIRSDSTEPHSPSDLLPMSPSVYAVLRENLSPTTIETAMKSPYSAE
Experimental: (§1) Fluorescence polarization assays
Competitive fluorescence polarization assays were carried as previously described.[1] Proteins […]
fluorescent-labeled peptides were used as tracers: 5-carboxyfluorescein-GpYLPQNID-OH for STAT4; 5-carboxyfluorescein-GpYDKPHVL for STAT1; 5-carboxyfluorescein-GpYLPQTV-NH2 for STAT3; 5-carboxyfluorescein-GpYLVLDKW for STAT5a/b, and 5-carboxyfluorescein- […]
mM Tris (pH 8.0), 50 mM NaCl, 1 mM EDTA, 1 mM DTT, 0.1 % Nonidet P-40 substitute, 2 %
DMSO. Proteins and test compound were incubated for 1 h at room temperature before the […]
(1 picture or pasted object on this page, not shown here) […]
fluorescent-labeled peptide was added. Samples were transferred to 384-well microtiter plates and fluorescence polarization was read after an additional 60 min of incubation time.
Experiments were carried out in triplicate. Percent binding was calculated based on a logarithmic curve fit using OriginPro 8G software. Conversion of IC50 values to Ki-values was achieved using the published equation[2] embedded in the corresponding Excel spread sheet […]
https://websites.umich.edu/~shaomengwanglab/software/calc_ki/ind ex.html.
(§2) Error bars represent standard deviations. […]
(§3) Experiments were carried out in triplicate. […]

[2] = target: T2, STAT1 (Homo sapiens, UniProt P42224); details: FP assay; data taken from the literature, ref [1] of the Supporting Information; cited from earlier work
T2 sequence (P42224 1-750): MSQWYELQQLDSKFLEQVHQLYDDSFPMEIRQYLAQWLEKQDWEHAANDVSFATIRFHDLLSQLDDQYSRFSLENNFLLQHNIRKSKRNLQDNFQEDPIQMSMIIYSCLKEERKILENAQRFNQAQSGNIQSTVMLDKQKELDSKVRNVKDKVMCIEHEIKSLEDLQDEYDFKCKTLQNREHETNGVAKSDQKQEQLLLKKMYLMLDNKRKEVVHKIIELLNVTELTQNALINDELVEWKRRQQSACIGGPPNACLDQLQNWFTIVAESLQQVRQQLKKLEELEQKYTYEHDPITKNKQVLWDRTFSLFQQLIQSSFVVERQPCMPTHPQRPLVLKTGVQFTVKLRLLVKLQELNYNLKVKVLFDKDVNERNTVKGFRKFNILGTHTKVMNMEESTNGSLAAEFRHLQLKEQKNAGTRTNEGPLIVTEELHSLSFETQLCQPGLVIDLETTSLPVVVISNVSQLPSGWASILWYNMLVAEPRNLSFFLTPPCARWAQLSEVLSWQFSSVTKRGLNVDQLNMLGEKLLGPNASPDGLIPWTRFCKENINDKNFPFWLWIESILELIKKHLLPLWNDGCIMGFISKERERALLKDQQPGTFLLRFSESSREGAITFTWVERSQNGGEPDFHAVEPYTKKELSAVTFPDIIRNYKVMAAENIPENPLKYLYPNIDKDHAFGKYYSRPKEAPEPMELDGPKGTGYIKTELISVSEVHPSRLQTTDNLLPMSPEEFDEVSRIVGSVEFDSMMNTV

[3] = target: T2, STAT1; assay: Competitive fluorescence polarization (FP) assay, STAT1; type: binding
Experimental: as §1
(§4) STAT4; 5-carboxyfluorescein-GpYDKPHVL for STAT1; 5-carboxyfluorescein-GpYLPQTV- […]
(§5) fluorescent-labeled peptide was added. Samples were transferred to 384-well microtiter plates […]
(§6) Experiments were carried out in triplicate. Percent binding was calculated based on a logarithmic curve fit using OriginPro 8G software. Conversion of IC50 values to Ki-values was […]
as §2, §3

[4] = target: T3, STAT5a (Homo sapiens, UniProt P42229); assay: Competitive fluorescence polarization (FP) assay, STAT5a; type: binding
T3 sequence (P42229 1-794): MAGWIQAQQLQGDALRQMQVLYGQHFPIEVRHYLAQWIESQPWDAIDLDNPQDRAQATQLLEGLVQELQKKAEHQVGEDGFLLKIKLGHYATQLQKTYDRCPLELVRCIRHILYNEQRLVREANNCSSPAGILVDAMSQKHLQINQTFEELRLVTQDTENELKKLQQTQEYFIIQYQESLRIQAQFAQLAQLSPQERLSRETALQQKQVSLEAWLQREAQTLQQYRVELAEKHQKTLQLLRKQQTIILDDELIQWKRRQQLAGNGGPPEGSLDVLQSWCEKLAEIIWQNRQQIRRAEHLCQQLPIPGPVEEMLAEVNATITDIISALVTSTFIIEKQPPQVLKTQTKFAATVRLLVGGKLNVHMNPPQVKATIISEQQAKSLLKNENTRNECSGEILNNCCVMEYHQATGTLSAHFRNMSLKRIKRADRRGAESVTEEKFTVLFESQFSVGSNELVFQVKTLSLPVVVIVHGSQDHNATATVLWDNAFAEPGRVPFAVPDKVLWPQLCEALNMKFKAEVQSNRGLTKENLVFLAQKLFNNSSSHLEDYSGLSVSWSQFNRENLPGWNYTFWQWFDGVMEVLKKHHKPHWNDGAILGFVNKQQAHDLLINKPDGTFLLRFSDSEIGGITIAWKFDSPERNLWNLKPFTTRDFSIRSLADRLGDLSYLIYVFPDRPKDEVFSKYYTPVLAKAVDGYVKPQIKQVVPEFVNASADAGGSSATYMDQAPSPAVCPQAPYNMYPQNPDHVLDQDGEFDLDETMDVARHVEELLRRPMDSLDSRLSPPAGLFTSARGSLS
Experimental: as §1, §4, §5, §6, §2, §3

[5] = target: T4, STAT5b (Homo sapiens, UniProt P51692); assay: Competitive fluorescence polarization (FP) assay, STAT5b; type: binding
T4 sequence (P51692 1-787): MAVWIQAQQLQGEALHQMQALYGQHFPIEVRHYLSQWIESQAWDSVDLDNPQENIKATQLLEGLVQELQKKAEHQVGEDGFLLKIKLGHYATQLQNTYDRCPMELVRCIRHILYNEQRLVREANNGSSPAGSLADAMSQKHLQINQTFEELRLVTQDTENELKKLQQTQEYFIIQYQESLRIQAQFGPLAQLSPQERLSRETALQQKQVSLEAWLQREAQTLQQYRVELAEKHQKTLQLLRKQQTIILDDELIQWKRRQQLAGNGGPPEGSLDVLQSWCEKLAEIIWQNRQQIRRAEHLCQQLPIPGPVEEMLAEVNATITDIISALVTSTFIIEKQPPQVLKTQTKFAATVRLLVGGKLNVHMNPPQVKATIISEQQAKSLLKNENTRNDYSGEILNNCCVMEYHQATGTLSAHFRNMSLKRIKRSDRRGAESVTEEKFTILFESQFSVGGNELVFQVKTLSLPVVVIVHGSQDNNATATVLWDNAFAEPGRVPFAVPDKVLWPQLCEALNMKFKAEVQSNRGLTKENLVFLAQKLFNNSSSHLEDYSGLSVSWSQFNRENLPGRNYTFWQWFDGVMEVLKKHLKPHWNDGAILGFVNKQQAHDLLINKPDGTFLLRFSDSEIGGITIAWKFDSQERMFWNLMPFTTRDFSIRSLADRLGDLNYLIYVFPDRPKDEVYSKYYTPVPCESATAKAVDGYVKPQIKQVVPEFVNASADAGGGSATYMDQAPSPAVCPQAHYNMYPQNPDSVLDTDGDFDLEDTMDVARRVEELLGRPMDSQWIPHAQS
Experimental: as §1, §4, §5, §6, §2, §3

[6] = target: T5, STAT6 (Homo sapiens, UniProt P42226); assay: Competitive fluorescence polarization (FP) assay, STAT6; type: binding
T5 sequence (P42226 1-847): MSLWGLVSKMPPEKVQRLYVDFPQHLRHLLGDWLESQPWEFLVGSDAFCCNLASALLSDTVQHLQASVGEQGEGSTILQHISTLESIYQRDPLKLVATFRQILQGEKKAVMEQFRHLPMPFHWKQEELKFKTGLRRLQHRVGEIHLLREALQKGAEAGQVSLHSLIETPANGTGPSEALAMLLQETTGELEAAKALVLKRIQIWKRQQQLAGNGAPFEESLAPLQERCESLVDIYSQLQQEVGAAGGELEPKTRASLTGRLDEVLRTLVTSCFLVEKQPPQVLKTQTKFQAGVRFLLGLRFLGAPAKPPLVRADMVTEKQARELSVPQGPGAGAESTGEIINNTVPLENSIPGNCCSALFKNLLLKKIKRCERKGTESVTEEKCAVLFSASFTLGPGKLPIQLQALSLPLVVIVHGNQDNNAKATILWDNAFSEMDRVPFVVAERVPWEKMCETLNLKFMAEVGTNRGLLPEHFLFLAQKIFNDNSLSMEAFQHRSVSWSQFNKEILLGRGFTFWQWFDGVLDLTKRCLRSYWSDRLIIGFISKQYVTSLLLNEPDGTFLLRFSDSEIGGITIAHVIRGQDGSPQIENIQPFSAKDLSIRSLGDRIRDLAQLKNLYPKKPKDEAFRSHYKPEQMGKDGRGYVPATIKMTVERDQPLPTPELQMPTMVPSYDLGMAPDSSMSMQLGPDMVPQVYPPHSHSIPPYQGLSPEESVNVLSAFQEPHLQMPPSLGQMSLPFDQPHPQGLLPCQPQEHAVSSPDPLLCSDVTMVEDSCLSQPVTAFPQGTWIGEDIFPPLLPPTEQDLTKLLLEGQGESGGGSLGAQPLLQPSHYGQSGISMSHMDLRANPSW
Experimental: as §1, §4, §5, §6, §2, §3

[7] = target: T1, STAT4 SH2 domain; details: FP assay; data taken from the literature, ref [1] of the Supporting Information; cited from earlier work
[8] = Ki calculated from IC50, mean ± SD, n = 3

O=P(O)(O)Oc1ccc(-c2ccsc2)cc1F [8d]
IC50 [1]: 0.52 µM
Ki [1]: 0.26 ± 0.02 µM

O=P(O)(O)Oc1ccc(-c2cccs2)cc1F [8e]
IC50 [1]: 0.6 µM
Ki [1]: 0.3 ± 0.003 µM

O=P(O)(O)Oc1ccc(-c2ccccc2)cc1 [compound 1, p‐biphenyl phosphate]
IC50 [2]: 16.4 µM

O=P(O)(O)Oc1ccc(-c2cccc3ccccc23)cc1 [compound 10]
IC50 ([3]; 80-92 nM STAT1, 10 nM tracer peptide): 38 µM
Ki [3, 8]: 17 ± 1 µM
IC50 ([4]; 125-177 nM STAT5a, 10 nM tracer peptide): 8.1 µM
Ki [4, 8]: 4 ± 0.3 µM
IC50 ([5]; 59-85 nM STAT5b, 10 nM tracer peptide): 89 µM
Ki [5, 8]: 43 ± 4 µM
IC50 ([6]; 106 nM STAT6, 10 nM tracer peptide): 19.1 µM
Ki [6, 8]: 9.4 ± 1.9 µM

O=P(O)(O)Oc1ccc(-c2ccccc2)cc1F [compound 13]
IC50 [7]: 1.21 µM
IC50 [2]: 12.8 µM
